Measured values reported in patent US20210017206A1, “PYRIDINONE AND PYRIMIDINONE PHOSPHATES AND BORONATES USEFUL AS ANTIBACTERIAL AGENTS” (Pfizer Inc., priority 2018, published 2021).
Converted amounts (≈) assume the structure as drawn.

How the values were obtained:
[1] = molecular target: T1, Pseudomonas aeruginosa LpxC enzyme (Pseudomonas aeruginosa, UniProt P47205); experiment: IC50 assay, LpxC enzyme from P. aeruginosa (PA LpxC enzyme IC50); assay type: biochemical; settings: P. aeruginosa LpxC 0.1 nM, 25° C., 1 hour, pH 8.0
T1 construct: made in house; host or cells: E. coli
Protocol: In order to assess the compounds biological activity, selected in vitro assays were conducted on selected compounds. One of the assays measured the compounds ability to disrupt the synthesis of lipopolysaccharide, LPS, which is a component of the outer membrane of Gram-negative bacteria. Disruption of this synthesis is lethal to the bacteria. The assay determined the compound's ability to inhibit LpxC, which is the first enzyme in the biosynthetic pathway for LPS (measured as IC50). Additionally, MICs (minimal inhibitory concentrations) were determined for several bacteria. The specific protocols are described below:
A) IC50 Assay, LpxC Enzyme from P. aeruginosa (Labeled as PA LpxC Enzyme IC50):
At the end of 1 hour, 5 ul of 1 N HCl was added to stop the enzyme reaction, the plates were centrifuged, and then processed with the BioTrove Rapidfire HTMS Mass Spectrometry System. A no-enzyme control was used in calculating the IC50 values from the percent conversion values.

[2] = test system: Acinetobacter baumannii/haemolyticus, multidrug-resistant clinical isolate (AB-3167); experiment: MIC determination (CLSI), AB-3167; assay type: cell-based; settings: lower of duplicate values
Protocol: (§1) B) MIC determinations: The in vitro antibacterial activity of parent compounds of those described in the Examples was evaluated by minimum inhibitory concentration (MIC) testing according to Clinical and Laboratory Standards Institute (CLSI). See: Clinical and Laboratory Standards Institute. Methods for Dilution Antimicrobial Susceptibility Tests for Bacteria that Grow Aerobically; Approved Standard-Eighth Edition. CLSI document M7-A8 [ISBN 1-56238-689-1]. Clinical and Laboratory Standards Institute, 940 West Valley Road, Suite 1400, Wayne, Pa. 19087-1898 USA, 2006; also Clinical and Laboratory Standards Institute. Performance Standards for Antimicrobial Susceptibility Testing; Twentieth Informational Supplement. CLSI document M100-S20 [ISBN1-56238-716-2]. Clinical and Laboratory Standards Institute.
(§2) The MIC determination is a standard laboratory method for evaluating the antibacterial activity of a compound. The MIC represents the lowest drug concentration that inhibits visible growth of bacteria following overnight incubation. […] Typically, the drug concentration range is broken down into 2-fold increments (e.g. 0.06 μg/mL, 0.12 μg/mL. 0.25 μg/mL, 0.50 μg/mL, 1.0 μg/mL, etc.) and the various drug concentrations are all individually incubated overnight with approximately the same number of bacteria. The MIC is then determined by visually inspecting the drug effect at each concentration, and identifying the lowest drug concentration that has inhibited bacterial growth as compared to the drug free control. Typically, bacteria continue to grow at drug concentrations lower than the MIC and don't grow at concentrations at and above the MIC.
(§3) The MIC values described in Table 2 below were derived from assays wherein each test compound was evaluated in duplicate. In cases where the duplicate values varied by 0-2-fold, the lower of the two values was reported below. Generally speaking, if the duplicate values varied by more than 2-fold, the assay was considered non-valid and was repeated until the variation between duplicate runs was <2-fold. In line with the CLSI guidelines referred to above, both control organisms and reference compounds were utilized in each MIC assay to provide proper quality control. MIC values generated with these control organisms and reference compounds were required to fall within a defined range for the assay to be considered valid and be included herein. Those skilled in the art will recognize that MIC values can and do vary from experiment to experiment. […] While a single MIC is reported for each compound and each microorganism, the reader should not conclude that each compound was only tested once. Several of the compounds were subjected to multiple tests. The data reported in Table 2 is reflective of the compounds relative activity and different MICs may have been generated on these occasions in line with the guidelines described above.
(§4) The following bacterial strains were used in these MIC determinations:
2) Acinetobacter baumannii/haemolyticus: Multidrug-resistant clinical isolate labeled as AB-3167 in Table 2;

[3] = test system: Escherichia coli EC-1: VOGEL, mouse virulent; experiment: MIC determination (CLSI), EC-1; assay type: cell-based; settings: read-out: EC-1 MIC
Protocol: as §1, §2, §3, §4
3) Escherichia coli EC-1: VOGEL, mouse virulent labeled as EC-1 in Table 2;

[4] = test system: Pseudomonas aeruginosa UI-18, wild-type (PA-7); experiment: MIC determination (CLSI), PA-7; assay type: cell-based; settings: lower of duplicate values
Protocol: as §1, §2, §3, §4
1) Pseudomonas aeruginosa UI-18: Wild-type, labeled as PA-7 in Table 2;

T1 sequence (P47205 whole entry): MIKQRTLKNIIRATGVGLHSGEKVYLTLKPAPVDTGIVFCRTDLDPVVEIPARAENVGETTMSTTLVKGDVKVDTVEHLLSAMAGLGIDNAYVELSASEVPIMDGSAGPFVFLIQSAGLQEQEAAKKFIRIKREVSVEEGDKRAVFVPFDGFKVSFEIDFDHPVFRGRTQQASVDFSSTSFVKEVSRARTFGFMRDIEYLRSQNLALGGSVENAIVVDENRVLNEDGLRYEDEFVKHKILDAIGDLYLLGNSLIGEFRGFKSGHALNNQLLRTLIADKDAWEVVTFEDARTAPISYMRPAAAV

Row | SMILES | IC50 [1] [nM] | MIC [2] [µg/mL] | MIC [3] [µg/mL] | MIC [4] [µg/mL]
1 | COc1ccc(-c2ccn(CC[C@](C)(C(=O)NO)S(C)(=O)=O)c(=O)c2)c(F)c1F [(2R)-4-[4-(2,3-difluoro-4-methoxyphenyl)-2-oxopyridin-1(2H)-yl]-N-hydroxy-2-methyl-2-(methylsulfonyl)butanamide] | 0.166 | > 64 | 0.015 (≈ 0.0348 µM) | 1 (≈ 2.32 µM)
2 | C[C@@](CCn1ccc(-c2ccc(-c3nccs3)cc2)cc1=O)(C(=O)NO)S(C)(=O)=O [(2R)-N-hydroxy-2-methyl-2-(methylsulfonyl)-4-{2-oxo-4-[4-(1,3-thiazol-2-yl)phenyl]pyridin-1(2H)-yl}butanamide] | 0.176 | > 64 | 0.06 (≈ 0.134 µM) | 0.5 (≈ 1.12 µM)
3 | C[C@@](CCn1cnc(-c2ccc(-n3nccn3)cc2)cc1=O)(C(=O)NO)S(C)(=O)=O [(2R)-N-hydroxy-2-methyl-2-(methylsulfonyl)-4-{6-oxo-4-[4-(2H-1,2,3-triazol-2-yl)phenyl]pyrimidin-1(6H)-yl}butanamide] | – | > 64 | 0.06 (≈ 0.139 µM) | 0.5 (≈ 1.16 µM)
4 | COc1cnn(-c2ccc(-c3ccn(CC[C@](C)(C(=O)NO)S(C)(=O)=O)c(=O)c3)cc2)n1 [(2R)-N-hydroxy-4-{4-[4-(4-methoxy-2H-1,2,3-triazol-2-yl)phenyl]-2-oxopyridin-1(2H)-yl}-2-methyl-2-(methylsulfonyl)butanamide] | 0.125 | > 64 | 0.03 (≈ 0.065 µM) | 0.5 (≈ 1.08 µM)
5 | C[C@@](CCn1ccc(-c2ccc(-n3nccn3)cc2)cc1=O)(C(=O)NO)S(C)(=O)=O [(R)-4-(4-(4-(2H-1,2,3-Triazol-2-yl)phenyl)-2-oxopyridin-1(2H)-yl)-N-hydroxy-2-methyl-2-(methylsulfonyl)butanamide] | – | > 64 | 0.06 (≈ 0.139 µM) | 0.5 (≈ 1.16 µM)
